Legend:
[1] = tested on: AML12 Cell Line; experiment: Transfection of AML12 Cell Line with FLuc mRNA LNPs (ONE-Glo EX luciferase signal); assay type: cell-based; conditions: 200 ng Fluc mRNA-LNP, 24 hours
Outline: (§1)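 Firefly luciferase luminescence measured 24 h after transfection with 200 ng mRNA-LNP per well in Opti-MEM. Seeding: 5,000 cells/well for B16F10 and MC38.K, 20,000 for AML12. LNPs were pre-incubated 30 min with mouse serum; mRNA content determined by RiboGreen.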

[2] = tested on: B16F10 Cell Line; experiment: Transfection of B16F10 Cell Line with FLuc mRNA LNPs (ONE-Glo EX luciferase signal); assay type: cell-based; conditions: 200 ng Fluc mRNA-LNP, 24 hours
Outline: as §1

[3] = tested on: MC38.K Cell Line; experiment: Transfection of MC38.K Cell Line with FLuc mRNA LNPs (ONE-Glo EX luciferase signal); assay type: cell-based; conditions: 200 ng Fluc mRNA-LNP, 24 hours; for Total Luciferin Signal (RLU) In Vitro - MC38.K: Table 4
Outline: as §1

[4] = tested on: Liver; experiment: Ex-vivo luminescence signal from liver after IV Fluc mRNA LNPs in CD1 mice (IVIS); conditions: tail vein 1.0 mg/kg Day 0 and Day 2, imaging 18 hours after second dose; for Total Liver Tissue Luciferin Signal (Photons/s) In Vivo-Cd1: Table 5; for Total Liver Tissue Luciferin Signal (Photons/s) Ex-vivo - CD1: Table 4
[5] = tested on: Spleen; experiment: Ex-vivo luminescence signal from spleen after IV Fluc mRNA LNPs in CD1 mice (IVIS); conditions: tail vein 1.0 mg/kg Day 0 and Day 2, imaging 18 hours after second dose, Table 5

CCCCCCCCC(CCCCCCCC)OC(=O)CCCCCC1CN(CCOC(=O)CCN(C)C)CC(CCCCCC(=O)OC(CCCCCCCC)CCCCCCCC)O1 (stereo not drawn) [Compound 100, di(heptadecan-9-yl) 6,6′-(4-(2-((3-(dimethylamino)propanoyl)oxy)ethyl)morpholine-2,6-diyl)dihexanoate]
Total Luciferin Signal (RLU) In Vitro - AML12 ([1]; Table 5): 1.43E+04 RLU
Total Luciferin Signal (RLU) In Vitro - B16F10 ([2]; Table 5): 6.29E+04 RLU
Total Luciferin Signal (RLU) In Vitro-MC38 ([3]; Table 5): 3.18E+04 RLU
Total Liver Tissue Luciferin Signal (Photons/s) In Vivo-Cd1 [4]: 6.44E+09 Photons/s
Total Spleen Tissue Luciferin Signal (Photons/s) In Vivo-Cd1 [5]: 2.92E+07 Photons/s

CCCCCCCCC(CCCCCCCC)C(=O)OCCCCCCCN(CCO)CCCCCCCOC(=O)CCCCCCCC=C(C)C [Compound 20]
Total Luciferin Signal (RLU) In Vitro - AML12 ([1]; Table 4): 7.65E+05 RLU
Total Luciferin Signal (RLU) In Vitro - B16F10 ([2]; Table 4): 4.65E+05 RLU
Total Luciferin Signal (RLU) In Vitro - MC38.K [3]: 7.88E+05 RLU
Total Liver Tissue Luciferin Signal (Photons/s) Ex-vivo - CD1 [4]: 7.61E+09 Photons/s

CCCCCCCC/C=C\CCCCCCC1CN(CCO)CC(CCCCCC/C=C\CCCCCCCC)O1 (stereo not drawn) [Compound 92, 2-(2,6-di((Z)-hexadec-7-en-1-yl)morpholino)ethan-1-ol]
Total Luciferin Signal (RLU) In Vitro - AML12 ([1]; Table 5): 2.46E+04 RLU
Total Luciferin Signal (RLU) In Vitro - B16F10 ([2]; Table 5): 8.03E+05 RLU
Total Liver Tissue Luciferin Signal (Photons/s) In Vivo-Cd1 [4]: 1.07E+07 Photons/s
Total Spleen Tissue Luciferin Signal (Photons/s) In Vivo-Cd1 [5]: 2.05E+06 Photons/s

CCCCCCCCC(CCCCCCCF)C(=O)OCCCCCCCN(CCO)CCCCCCCOC(=O)CCCCCCCC=C(C)C (stereo not drawn) [Compound 52, 7-((7-((2-(7-fluoroheptyl)decanoyl)oxy)heptyl)(2-hydroxyethyl)amino)heptyl 10-methylundec-9-enoate]
Total Luciferin Signal (RLU) In Vitro - AML12 ([1]; Table 4): 2.59E+05 RLU
Total Luciferin Signal (RLU) In Vitro - B16F10 ([2]; Table 4): 2.53E+05 RLU
Total Luciferin Signal (RLU) In Vitro - MC38.K [3]: 4.31E+05 RLU
Total Liver Tissue Luciferin Signal (Photons/s) Ex-vivo - CD1 [4]: 7.87E+09 Photons/s

CCCCCCCCCCCOC(=O)CCCCCN(CCO)CCCCCCCC(=O)OC(CCCCCCCC)CCCCCCCCF (stereo not drawn) [Compound 33]
Total Luciferin Signal (RLU) In Vitro - AML12 ([1]; Table 4): 1.38E+05 RLU
Total Luciferin Signal (RLU) In Vitro - B16F10 ([2]; Table 4): 4.80E+05 RLU
Total Luciferin Signal (RLU) In Vitro - MC38.K [3]: 1.07E+06 RLU
Total Liver Tissue Luciferin Signal (Photons/s) Ex-vivo - CD1 [4]: 2.93E+09 Photons/s

CCCCCCCCC(CCCCCCCCF)OC(=O)CCCCCN(CCO)CCCCC(C)C(=O)OCCCCCCCCCCC(C)C (stereo not drawn) [Compound 65, 11-methyldodecyl 6-((6-((1-fluoroheptadecan-9-yl)oxy)-6-oxohexyl)(2-hydroxyethyl)amino)-2-methylhexanoate]
Total Luciferin Signal (RLU) In Vitro - AML12 ([1]; Table 4): 3.24E+05 RLU
Total Luciferin Signal (RLU) In Vitro - B16F10 ([2]; Table 4): 3.78E+05 RLU
Total Luciferin Signal (RLU) In Vitro - MC38.K [3]: 3.81E+06 RLU
Total Liver Tissue Luciferin Signal (Photons/s) Ex-vivo - CD1 [4]: 4.01E+09 Photons/s

CCCCCCCCCCCCC1CN(CCO)CC(CCCCCCCCCCCC)O1 (stereo not drawn) [Compound 90, 2-(2,6-didodecylmorpholino)ethan-1-ol]
Total Luciferin Signal (RLU) In Vitro - AML12 ([1]; Table 5): 2.69E+04 RLU
Total Luciferin Signal (RLU) In Vitro - B16F10 ([2]; Table 5): 8.93E+04 RLU
Total Liver Tissue Luciferin Signal (Photons/s) In Vivo-Cd1 [4]: 3.35E+06 Photons/s
Total Spleen Tissue Luciferin Signal (Photons/s) In Vivo-Cd1 [5]: 5.69E+05 Photons/s

CCCCCCCCC(CCCCCCCCF)C(=O)OCCCCCCCN(CCCCO)CCCCCCCOC(=O)CCCCCCCCC(C)C (stereo not drawn) [Compound 69, 7-((7-((10-fluoro-2-octyldecanoyl)oxy)heptyl)(4-hydroxybutyl)amino)heptyl 10-methylundecanoate]
Total Luciferin Signal (RLU) In Vitro - AML12 ([1]; Table 4): 8.05E+06 RLU
Total Luciferin Signal (RLU) In Vitro - B16F10 ([2]; Table 4): 3.62E+06 RLU
Total Luciferin Signal (RLU) In Vitro - MC38.K [3]: 4.67E+07 RLU
Total Liver Tissue Luciferin Signal (Photons/s) Ex-vivo - CD1 [4]: 4.64E+09 Photons/s

CCCCCCCCC(CCCCCCCCF)OC(=O)CCCCCCCN(CCO)CCCCCCC(C)C(=O)OCCCCCCCCC(C)C (stereo not drawn) [Compound 66, 9-methyldecyl 8-((8-((1-fluoroheptadecan-9-yl)oxy)-8-oxooctyl)(2-hydroxyethyl)amino)-2-methyloctanoate]
Total Luciferin Signal (RLU) In Vitro - AML12 ([1]; Table 4): 1.16E+06 RLU
Total Luciferin Signal (RLU) In Vitro - B16F10 ([2]; Table 4): 1.12E+06 RLU
Total Luciferin Signal (RLU) In Vitro - MC38.K [3]: 5.75E+06 RLU
Total Liver Tissue Luciferin Signal (Photons/s) Ex-vivo - CD1 [4]: 9.44E+09 Photons/s

CCCCCCCCC(CCCCCCCF)OC(=O)CCCCCCCN(CCO)CCCCCC(=O)OC(CCCCCCCC)CCCCCC(C)C (stereo not drawn) [Compound 55, 1-fluorohexadecan-8-yl 8-((2-hydroxyethyl)(6-((2-methylhexadecan-8-yl)oxy)-6-oxohexyl)amino)octanoate]
Total Luciferin Signal (RLU) In Vitro - AML12 ([1]; Table 4): 4.19E+05 RLU
Total Luciferin Signal (RLU) In Vitro - B16F10 ([2]; Table 4): 1.10E+06 RLU
Total Luciferin Signal (RLU) In Vitro - MC38.K [3]: 1.80E+06 RLU
Total Liver Tissue Luciferin Signal (Photons/s) Ex-vivo - CD1 [4]: 1.93E+10 Photons/s

CCCCCCCCC(CCCCCCCC)C(=O)OCCCCCCCN(CCCCCC(=O)OCCCCCCCCC(C)C)CCOC(=O)CCCN(C)CCO [Compound 8]
Total Luciferin Signal (RLU) In Vitro - AML12 ([1]; Table 4): 1.43E+05 RLU
Total Luciferin Signal (RLU) In Vitro - B16F10 ([2]; Table 4): 9.69E+05 RLU
Total Luciferin Signal (RLU) In Vitro - MC38.K [3]: 3.40E+06 RLU
Total Liver Tissue Luciferin Signal (Photons/s) Ex-vivo - CD1 [4]: 2.13E+08 Photons/s

— patent US20260116845A1, “LIPIDS AND COMPOSITIONS THEREOF” (Kernal Biologics, Inc., priority 2023, published 2026)
